Laboratory results from ChEMBL document CHEMBL4311969, “Polygala tenuifolia-Acori tatarinowii herbal pair as an inspiration for substituted cinnamic α-asaronol esters: Design, synthesis, anticonvulsant activity, and inhibition of lactate dehydrogenase study” (Eur J Med Chem, 2019).
Active and inactive are the calls of the source. The rule behind the calls is not given here.

Columns and labels:
[1] = target: T1, GABA-A receptor; alpha-1/beta-2/gamma-2 (Homo sapiens, UniProt P14867+P18507+P47870); test: Agonist activity at GABA alpha1beta2gamma2 receptor in human HEK293T at -50 mV holding potential by whole cell voltage clamp assay; type: protein-complex assay
T1 sequence (P14867 whole entry): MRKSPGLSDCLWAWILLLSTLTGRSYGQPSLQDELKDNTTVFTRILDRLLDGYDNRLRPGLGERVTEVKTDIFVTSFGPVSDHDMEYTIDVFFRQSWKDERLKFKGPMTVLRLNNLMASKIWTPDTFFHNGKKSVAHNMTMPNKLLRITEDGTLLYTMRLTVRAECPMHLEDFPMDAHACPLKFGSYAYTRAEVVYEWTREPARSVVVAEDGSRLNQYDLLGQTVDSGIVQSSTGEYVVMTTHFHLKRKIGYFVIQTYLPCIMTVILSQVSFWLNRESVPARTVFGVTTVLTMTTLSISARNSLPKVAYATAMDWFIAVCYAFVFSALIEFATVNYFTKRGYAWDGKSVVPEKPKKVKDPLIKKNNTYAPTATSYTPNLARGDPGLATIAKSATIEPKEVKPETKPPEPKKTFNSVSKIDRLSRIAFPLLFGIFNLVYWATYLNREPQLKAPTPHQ
T1 sequence (P47870 whole entry): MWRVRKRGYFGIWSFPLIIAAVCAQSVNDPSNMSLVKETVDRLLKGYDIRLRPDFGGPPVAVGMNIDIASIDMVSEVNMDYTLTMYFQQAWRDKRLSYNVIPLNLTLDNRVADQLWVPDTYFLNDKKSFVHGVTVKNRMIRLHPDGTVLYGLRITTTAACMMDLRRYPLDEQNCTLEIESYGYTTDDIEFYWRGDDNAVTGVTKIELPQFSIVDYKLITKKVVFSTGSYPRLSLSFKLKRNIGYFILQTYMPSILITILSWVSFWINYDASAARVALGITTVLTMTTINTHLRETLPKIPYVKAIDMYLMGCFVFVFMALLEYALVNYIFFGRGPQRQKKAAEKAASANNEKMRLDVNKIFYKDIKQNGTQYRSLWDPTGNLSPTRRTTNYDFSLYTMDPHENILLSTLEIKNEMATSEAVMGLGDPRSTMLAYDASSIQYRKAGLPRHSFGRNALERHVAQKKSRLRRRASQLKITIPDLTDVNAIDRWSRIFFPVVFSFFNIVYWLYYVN
T1 sequence (P18507 whole entry): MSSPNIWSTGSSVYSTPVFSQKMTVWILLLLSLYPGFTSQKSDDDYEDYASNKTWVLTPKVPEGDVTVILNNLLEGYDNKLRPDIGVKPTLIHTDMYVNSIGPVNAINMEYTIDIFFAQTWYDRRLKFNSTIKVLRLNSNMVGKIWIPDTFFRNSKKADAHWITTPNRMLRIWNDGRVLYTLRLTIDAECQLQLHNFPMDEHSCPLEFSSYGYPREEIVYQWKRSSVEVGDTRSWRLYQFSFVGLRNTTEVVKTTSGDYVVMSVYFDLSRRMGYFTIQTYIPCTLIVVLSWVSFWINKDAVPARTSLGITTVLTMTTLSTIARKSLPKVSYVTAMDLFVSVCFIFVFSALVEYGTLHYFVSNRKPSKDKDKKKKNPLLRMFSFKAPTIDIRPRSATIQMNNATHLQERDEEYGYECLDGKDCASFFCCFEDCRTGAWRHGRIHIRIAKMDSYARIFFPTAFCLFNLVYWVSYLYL

[2] = target: GABA-A receptor; alpha-1/beta-2/gamma-2 (Homo sapiens) (UniProt P14867+P47870+P18507); test: Agonist activity at GABA alpha1beta2gamma2 receptor in human HEK293T at 3.3 to 300 uM at -50 mV holding potential by whole cell voltage clamp assay relative to control; type: protein-complex assay
[3] = Neurotoxicity against Kunming mouse assessed as time remained in rod at 100 mg/kg, ip administered 0.5 to 2 hrs by rotarod test; type: toxicity, organism-based; settings: in vivo
Homo sapiens [4] = species on record: Homo sapiens; test: Inhibition of human LDH1 at 0.5 mM using sodium pyruvate as substrate by UV-VIS spectrophotometry method relative to control
Homo sapiens [5] = species on record: Homo sapiens; test: Inhibition of human LDH5 at 0.5 mM using sodium pyruvate as substrate by UV-VIS spectrophotometry method relative to control
Homo sapiens [6] = species on record: Homo sapiens; test: Inhibition of human LDH5 at 2 mM using sodium pyruvate as substrate by UV-VIS spectrophotometry method relative to control
Homo sapiens [7] = species on record: Homo sapiens; test: Inhibition of human LDH1 at 2 mM using sodium pyruvate as substrate by UV-VIS spectrophotometry method relative to control
Mus musculus = test: Anticonvulsant activity in Kunming mouse assessed as MES-induced hind limb extension at 100 mg/kg, ip administered 0. 5 to 2 hrs before MES stimulation; type: functional, organism-based

EC50 [1]: 46 µM | %max [2]: 310% | inhibition (Homo sapiens [4]): inactive | inhibition (Homo sapiens [5]): inactive | inhibition (Homo sapiens [6]): 7 to 10% | inhibition (Homo sapiens [7]): 7 to 10%
SMILES: CC(C)(C)C(O)/C=C/c1ccc2c(c1)OCO2 (stereo not drawn) [STIRIPENTOL]
Activity [3]: Non-Toxic | Activity (Mus musculus): Active
